In patent US20160168147A1, “ISOTOPICALLY ENRICHED AZAINDOLES” (Vertex Pharmaceuticals Incorporated, priority 2013, published 2016):

System: Cryopreserved Human Hepatocytes
Assay: Assessment of metabolite profile and kinetic isotope effect in human hepatocytes (Example 6)
Assay type: in vitro ADME
Details: 3 μM and 10 μM, sampled at 120 minutes, LC-MS MRM
Protocol: Cryopreserved Human Hepatocytes lot TFF (purchased from Celsis) were used. Hepatocytes were thawed using CHRM and suspended in Williams E media containing cell maintenance supplement package. 1000 μL of a final cell concentration 1 million cells/mL were placed in individual incubation wells (24-well plate set-up). Incubation was conducted at 37° C. and kept in a CO2/O2 humidified incubator. 10 μL of compound stock was spiked into cell the matrix to achieve final incubation concentrations of 3 μM and 10 μM. The matrix was swirled prior to the removal of each time-point and 50 μL of sample were removed and added to 200 μL of acetonitrile containing internal standard, IS. Time-points were sampled at 120 minutes using MRM on an ABSciex API5500-QTrap paired with an Agilent 1290 UPLC and a CTC PAL autosampler. A 20-minute gradient method using a HALO C18 2.1×50 mm 2.7 μm column made by Advanced Materials Technology was used for the analysis. /

[2H]c1[nH]c2ncccc2c1-c1nccc(N[C@](C)(CC)C(=O)NCC(F)(F)F)n1 [Compound 1-a, (2R)-2-[[2-(2-deuterio-1H-pyrrolo[2,3-b]pyridin-3-yl)pyrimidin-4-yl]amino]-2-methyl-N-(2.2.2-trifluoroethyl)butanamide]
new metabolites observed: no new metabolites were observed
